{
  "source": "patent US11117900B2",
  "about": "(Vertex Pharmaceuticals Incorporated, priority 2012, dated 2021)",
  "data": [
    {"test_system": "HCT116 colorectal cancer cells", "test": "Cisplatin sensitization assay (96 h MTS cell viability);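 further: compound concentration needed to lower the IC50 of Cisplatin alone by a set fold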", "assay_type": "cell-based", "settings": "Cisplatin sensitization value", "method_in_brief": "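HCT116 cells were dosed simultaneously with compound and cisplatin as a full matrix of 2-fold serial dilutions from 10 μM top final concentration. Incubation was 96 h at 37° C., 5% CO2, followed by 1 h with MTS reagent for the viability read-out. Sensitization values were binned into +++, ++ and + categories.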", "values": [
      {"molecule": "Nc1nn2cc(F)cnc2c1C(=O)Nc1cncc(F)c1N1CCC(C(=O)N2CCOCC2)CC1", "note": "[I-G-36, 2-amino-6-fluoro-N-(5-fluoro-4-(4-(morpholine-4-carbonyl)piperidin-1-yl)pyridin-3-yl)pyrazolo[1,5-a]pyrimidine-3-carboxamide]", "Cisplatin Sensitization Assay": "+++ (Compounds with a Cisplatin sensitization value of <0.02 μM are marked with “+++.”)"},
      {"molecule": "Nc1nn2cc(F)cnc2c1C(=O)Nc1cncc(F)c1N1CCN(C(=O)C2CCN(C3COC3)CC2)CC1", "note": "[I-N-211, 2-amino-6-fluoro-N-(5-fluoro-4-(4-(1-(oxetan-3-yl)piperidine-4-carbonyl)piperazin-1-yl)pyridin-3-yl)pyrazolo[1,5-a]pyrimidine-3-carboxamide]", "Cisplatin Sensitization Assay": "++ (Compounds with a Cisplatin sensitization value >0.02 μM but <0.2 μM are marked with “++.”)"},
      {"molecule": "CN1CCN(c2c(NC(=O)c3c(N)nn4cc(F)cnc34)cncc2C(F)F)CC1", "note": "[I-N-111, 2-amino-N-(5-(difluoromethyl)-4-(4-methylpiperazin-1-yl)pyridin-3-yl)-6-fluoropyrazolo[1,5-a]pyrimidine-3-carboxamide]", "Cisplatin Sensitization Assay": "++ (Compounds with a Cisplatin sensitization value >0.02 μM but <0.2 μM are marked with “++.”)"},
      {"molecule": "COC(=O)[C@H]1CC[C@H](Oc2ccncc2NC(=O)c2c(N)nn3cc(F)cnc23)CC1", "note": "[I-O-13, (1r,4r)-methyl 4-((3-(2-amino-6-fluoropyrazolo[1,5-a]pyrimidine-3-carboxamido)pyridin-4-yl)oxy)cyclohexanecarboxylate]", "Cisplatin Sensitization Assay": "+++ (Compounds with a Cisplatin sensitization value of <0.02 μM are marked with “+++.”)"},
      {"molecule": "CN1CCCCC1C(=O)N1CCN(c2c(F)cncc2NC(=O)c2c(N)nn3cc(F)cnc23)CC1", "note": "(stereo not drawn) [I-N-173, 2-amino-6-fluoro-N-(5-fluoro-4-(4-(1-methylpiperidine-2-carbonyl)piperazin-1-yl)pyridin-3-yl)pyrazolo[1,5-a]pyrimidine-3-carboxamide]", "Cisplatin Sensitization Assay": "+++ (Compounds with a Cisplatin sensitization value of <0.02 μM are marked with “+++.”)"},
      {"molecule": "Nc1nn2cc(Cl)cnc2c1C(=O)Nc1cnccc1N1CCN2CCC[C@@H]2C1", "note": "[I-N-65, (R)-2-amino-6-chloro-N-(4-(hexahydropyrrolo[1,2-a]pyrazin-2(1H)-yl)pyridin-3-yl)pyrazolo[1,5-a]pyrimidine-3-carboxamide]", "Cisplatin Sensitization Assay": "+ (Compounds with a Cisplatin sensitization value >0.2 μM but <5 μM are marked with “+.”)"},
      {"molecule": "CN1CCOC2(CCN(c3ccncc3NC(=O)c3c(N)nn4cc(F)cnc34)CC2)C1", "note": "[I-N-183, 2-amino-6-fluoro-N-(4-(4-methyl-1-oxa-4,9-diazaspiro[5.5]undecan-9-yl)pyridin-3-yl)pyrazolo[1,5-a]pyrimidine-3-carboxamide]", "Cisplatin Sensitization Assay": "+++ (Compounds with a Cisplatin sensitization value of <0.02 μM are marked with “+++.”)"},
      {"molecule": "N#CCc1cnc2c(C(=O)Nc3cnccc3Oc3ccccc3)c(N)nn2c1", "note": "[I-O-25, 2-amino-6-(cyanomethyl)-N-(4-phenoxypyridin-3-yl)pyrazolo[1,5-a]pyrimidine-3-carboxamide]", "Cisplatin Sensitization Assay": "+++ (Compounds with a Cisplatin sensitization value of <0.02 μM are marked with “+++.”)"},
      {"molecule": "Cn1c(-c2ccncc2NC(=O)c2c(N)nn3cc(F)cnc23)cccc1=O", "note": "[I-C-58, 2-amino-6-fluoro-N-(1-methyl-6-oxo-1,6-dihydro-[2,4′-bipyridin]-3′-yl)pyrazolo[1,5-a]pyrimidine-3-carboxamide]", "Cisplatin Sensitization Assay": "+++ (Compounds with a Cisplatin sensitization value of <0.02 μM are marked with “+++.”)"},
      {"molecule": "Cc1ncccc1-c1ccncc1NC(=O)c1c(N)nn2cc(F)cnc12", "note": "[I-C-20, 2-amino-6-fluoro-N-(2-methyl-[3,4′-bipyridin]-3′-yl)pyrazolo[1,5-a]pyrimidine-3-carboxamide]", "Cisplatin Sensitization Assay": "+++ (Compounds with a Cisplatin sensitization value of <0.02 μM are marked with “+++.”)"},
      {"molecule": "N#CCc1cnc2c(C(=O)Nc3cnccc3OC3CCCOC3)c(N)nn2c1", "note": "(stereo not drawn) [I-O-41, 2-amino-6-(cyanomethyl)-N-(4-((tetrahydro-2H-pyran-3-yl)oxy)pyridin-3-yl)pyrazolo[1,5-a]pyrimidine-3-carboxamide]", "Cisplatin Sensitization Assay": "+++ (Compounds with a Cisplatin sensitization value of <0.02 μM are marked with “+++.”)"},
      {"molecule": "CNCCCN(C)C(=O)C1CCN(c2c(F)cncc2NC(=O)c2c(N)nn3cc(F)cnc23)CC1", "note": "[I-G-17]", "Cisplatin Sensitization Assay": "+ (Compounds with a Cisplatin sensitization value >0.2 μM but <5 μM are marked with “+.”)"},
      {"molecule": "N#CCc1cnc2c(C(=O)Nc3cnccc3OC3CCCC3)c(N)nn2c1", "note": "[I-O-43, 2-amino-6-(cyanomethyl)-N-(4-(cyclopentyloxy)pyridin-3-yl)pyrazolo[1,5-a]pyrimidine-3-carboxamide]", "Cisplatin Sensitization Assay": "+++ (Compounds with a Cisplatin sensitization value of <0.02 μM are marked with “+++.”)"},
      {"molecule": "CC1(O)CCN(c2ccncc2NC(=O)c2c(N)nn3cc(Cl)cnc23)CC1", "note": "[I-N-66, 2-amino-6-chloro-N-(4-(4-hydroxy-4-methylpiperidin-1-yl)pyridin-3-yl)pyrazolo[1,5-a]pyrimidine-3-carboxamide]", "Cisplatin Sensitization Assay": "+++ (Compounds with a Cisplatin sensitization value of <0.02 μM are marked with “+++.”)"},
      {"molecule": "Nc1nn2cc(F)cnc2c1C(=O)Nc1cnccc1-n1ccnc1", "note": "[I-N-7, N-(4-(1H-imidazol-1-yl)pyridin-3-yl)-2-amino-6-fluoropyrazolo[1,5-a]pyrimidine-3-carboxamide]", "Cisplatin Sensitization Assay": "++ (Compounds with a Cisplatin sensitization value >0.02 μM but <0.2 μM are marked with “++.”)"},
      {"molecule": "CNCCc1cnn(-c2ccncc2NC(=O)c2c(N)nn3cc(F)cnc23)c1", "note": "[I-N-8, 2-amino-6-fluoro-N-(4-(4-(2-(methylamino)ethyl)-1H-pyrazol-1-yl)pyridin-3-yl)pyrazolo[1,5-a]pyrimidine-3-carboxamide]", "Cisplatin Sensitization Assay": "+ (Compounds with a Cisplatin sensitization value >0.2 μM but <5 μM are marked with “+.”)"},
      {"molecule": "Nc1nn2cc(F)cnc2c1C(=O)Nc1cnccc1O[C@H]1Cc2nccn2C1", "note": "[I-O-16, (S)-2-amino-N-(4-((6,7-dihydro-5H-pyrrolo[1,2-a]imidazol-6-yl)oxy)pyridin-3-yl)-6-fluoropyrazolo[1,5-a]pyrimidine-3-carboxamide]", "Cisplatin Sensitization Assay": "+++ (Compounds with a Cisplatin sensitization value of <0.02 μM are marked with “+++.”)"},
      {"molecule": "Nc1nn2cc(F)cnc2c1C(=O)Nc1cncc(F)c1N1CCC(C(=O)N2CC3(COC3)C2)CC1", "note": "[I-G-72, N-(4-(4-(2-oxa-6-azaspiro[3.3]heptane-6-carbonyl)piperidin-1-yl)-5-fluoropyridin-3-yl)-2-amino-6-fluoropyrazolo[1,5-a]pyrimidine-3-carboxamide]", "Cisplatin Sensitization Assay": "+++ (Compounds with a Cisplatin sensitization value of <0.02 μM are marked with “+++.”)"},
      {"molecule": "Nc1nn2cc(F)cnc2c1C(=O)Nc1cnccc1C1CCOC1", "note": "(stereo not drawn) [I-C-75, 2-amino-6-fluoro-N-(4-(tetrahydrofuran-3-yl)pyridin-3-yl)pyrazolo[1,5-a]pyrimidine-3-carboxamide]", "Cisplatin Sensitization Assay": "++ (Compounds with a Cisplatin sensitization value >0.02 μM but <0.2 μM are marked with “++.”)"},
      {"molecule": "CN1CCC[C@H]1C(=O)N1CCN(c2ccncc2NC(=O)c2c(N)nn3cc(F)cnc23)CC1", "note": "[I-N-198, (S)-2-amino-6-fluoro-N-(4-(4-(1-methylpyrrolidine-2-carbonyl)piperazin-1-yl)pyridin-3-yl)pyrazolo[1,5-a]pyrimidine-3-carboxamide]", "Cisplatin Sensitization Assay": "++ (Compounds with a Cisplatin sensitization value >0.02 μM but <0.2 μM are marked with “++.”)"},
      {"molecule": "N#CCc1cnc2c(C(=O)Nc3cnccc3OCC3CC3)c(N)nn2c1", "note": "[I-O-32, 2-amino-6-(cyanomethyl)-N-(4-(cyclopropylmethoxy)pyridin-3-yl)pyrazolo[1,5-a]pyrimidine-3-carboxamide]", "Cisplatin Sensitization Assay": "+++ (Compounds with a Cisplatin sensitization value of <0.02 μM are marked with “+++.”)"},
      {"molecule": "Nc1nn2cc(F)cnc2c1C(=O)Nc1cnccc1-c1ccc(C(=O)N2CCC(N3CCC3)CC2)nc1", "note": "[I-C-54, 2-amino-N-(6-(4-(azetidin-1-yl)piperidine-1-carbonyl)-[3,4′-bipyridin]-3′-yl)-6-fluoropyrazolo[1,5-a]pyrimidine-3-carboxamide]", "Cisplatin Sensitization Assay": "+++ (Compounds with a Cisplatin sensitization value of <0.02 μM are marked with “+++.”)"},
      {"molecule": "Nc1nn2cc(F)cnc2c1C(=O)Nc1cncc(F)c1N1CCC(OCCN2CCCC2)CC1", "note": "[I-N-167, 2-amino-6-fluoro-N-(5-fluoro-4-(4-(2-(pyrrolidin-1-yl)ethoxy)piperidin-1-yl)pyridin-3-yl)pyrazolo[1,5-a]pyrimidine-3-carboxamide]", "Cisplatin Sensitization Assay": "+++ (Compounds with a Cisplatin sensitization value of <0.02 μM are marked with “+++.”)"},
      {"molecule": "Nc1nn2cc(Cl)cnc2c1C(=O)Nc1cnccc1N1CCC(N2CC[C@H](F)C2)CC1", "note": "[I-N-103, (S)-2-amino-6-chloro-N-(4-(4-(3-fluoropyrrolidin-1-yl)piperidin-1-yl)pyridin-3-yl)pyrazolo[1,5-a]pyrimidine-3-carboxamide]", "Cisplatin Sensitization Assay": "+++ (Compounds with a Cisplatin sensitization value of <0.02 μM are marked with “+++.”)"},
      {"molecule": "COc1ccncc1NC(=O)c1c(N)nn2cc(F)cnc12", "note": "[I-O-4, 2-amino-6-fluoro-N-(4-methoxypyridin-3-yl)pyrazolo[1,5-a]pyrimidine-3-carboxamide]", "Cisplatin Sensitization Assay": "++ (Compounds with a Cisplatin sensitization value >0.02 μM but <0.2 μM are marked with “++.”)"},
      {"molecule": "Nc1nn2cc(F)cnc2c1C(=O)Nc1cnccc1N1CC(=O)N2CCCC2C1", "note": "(stereo not drawn) [I-N-222, 2-amino-6-fluoro-N-(4-(4-oxohexahydropyrrolo[1,2-a]pyrazin-2(1H)-yl)pyridin-3-yl)pyrazolo[1,5-a]pyrimidine-3-carboxamide]", "Cisplatin Sensitization Assay": "++ (Compounds with a Cisplatin sensitization value >0.02 μM but <0.2 μM are marked with “++.”)"},
      {"molecule": "CN1CCN(C(=O)C2CCN(c3c(F)cncc3NC(=O)c3c(N)nn4cc(F)cnc34)CC2)CC12CC2", "note": "[I-G-38, 2-amino-6-fluoro-N-(5-fluoro-4-(4-(4-methyl-4,7-diazaspiro[2.5]octane-7-carbonyl)piperidin-1-yl)pyridin-3-yl)pyrazolo[1,5-a]pyrimidine-3-carboxamide]", "Cisplatin Sensitization Assay": "+++ (Compounds with a Cisplatin sensitization value of <0.02 μM are marked with “+++.”)"}
    ]}
  ]
}
